pIC50: −log10 of the molar value.
Test system: 624824-186-R-J3-PDC multicell spheroids, viability
Test: Anticancer human tumor 624824-186-R-J3-PDC patient-derived colon adenocarcinoma cell line growth inhibition [PI3K]
Details: for pIC50: curve of first compound; for viability, T/C: stronger effect = lower value
In short: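 High-throughput combination screen: PI3K inhibitors crossed with targeted small molecules on complex spheroids of tumor cells, HUVEC and MSCs at 37 degrees C, 5% CO2. Top concentration was at or near clinical Cmax (otherwise 10 microM), with half-log decrements.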

[1] = second compound 0.0316 µM, first compound 0.0316 µM
[2] = second compound 0.0316 µM, first compound 0.1 µM
[3] = second compound 0.0316 µM, first compound 0.316 µM
[4] = second compound 0.0316 µM, first compound 1 µM
[5] = second compound 0.0316 µM, first compound 3.16 µM
[6] = second compound 0.0316 µM, first compound 10 µM
[7] = second compound 0.1 µM, first compound 0.0316 µM
[8] = second compound 0.1 µM, first compound 0.1 µM
[9] = second compound 0.1 µM, first compound 0.316 µM
[10] = second compound 0.1 µM, first compound 1 µM
[11] = second compound 0.1 µM, first compound 3.16 µM
[12] = second compound 0.1 µM, first compound 10 µM
[13] = second compound 0.316 µM, first compound 0.0316 µM
[14] = second compound 0.316 µM, first compound 0.1 µM
[15] = second compound 0.316 µM, first compound 0.316 µM
[16] = second compound 0.316 µM, first compound 1 µM
[17] = second compound 0.316 µM, first compound 3.16 µM
[18] = second compound 0.316 µM, first compound 10 µM
[19] = second compound 1 µM, first compound 0.0316 µM
[20] = second compound 1 µM, first compound 0.1 µM
[21] = second compound 1 µM, first compound 0.316 µM
[22] = second compound 1 µM, first compound 1 µM
[23] = second compound 1 µM, first compound 3.16 µM
[24] = second compound 1 µM, first compound 10 µM
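Also: spheroids exposed to agents for seven days before luminescence read.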
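For viability, T/C in this document: luminescent signal used as a stand-in for spheroid viability; percent viability relative to DMSO vehicle control wells taken as 100%.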

Structure (SMILES): Cn1ncc(Cl)c1-c1cc(C(=O)NC(CN)Cc2cccc(F)c2)sc1Cl (centres undefined) + Cc1nc(NC(=O)N2CCCC2C(N)=O)sc1-c1ccnc(C(C)(C)C(F)(F)F)c1
- pIC50 (second compound 0.0316 µM): 5.41
- pIC50 (second compound 0.1 µM): 5.55
- pIC50 (second compound 0.316 µM): 5.61
- pIC50 (second compound 1 µM): 5.55
- pIC50 (second compound 3.16 µM): 5.75
- pIC50 (second compound 10 µM): 6.03
- viability, T/C [1]: 107%
- viability, T/C [2]: 95.5%
- viability, T/C [3]: 90.2%
- viability, T/C [4]: 71.7%
- viability, T/C [5]: 52.4%
- viability, T/C [6]: 36.4%
- viability, T/C [7]: 104%
- viability, T/C [8]: 103%
- viability, T/C [9]: 98.8%
- viability, T/C [10]: 70.9%
- viability, T/C [11]: 49.8%
- viability, T/C [12]: 39%
- viability, T/C [13]: 108%
- viability, T/C [14]: 104%
- viability, T/C [15]: 89.4%
- viability, T/C [16]: 61%
- viability, T/C [17]: 50%
- viability, T/C [18]: 36.1%
- viability, T/C [19]: 102%
- viability, T/C [20]: 87%
- viability, T/C [21]: 82.2%
- viability, T/C [22]: 70.1%
- viability, T/C [23]: 44.9%
- viability, T/C [24]: 30.4%
- viability, T/C (second compound 3.16 µM, first compound 0.0316 µM): 76.7%
- viability, T/C (second compound 3.16 µM, first compound 0.1 µM): 89%
- viability, T/C (second compound 3.16 µM, first compound 0.316 µM): 81.9%
- viability, T/C (second compound 3.16 µM, first compound 1 µM): 56.7%
- viability, T/C (second compound 3.16 µM, first compound 3.16 µM): 42.8%
- viability, T/C (second compound 3.16 µM, first compound 10 µM): 26.7%
- viability, T/C (second compound 10 µM, first compound 0.0316 µM): 74.5%
- viability, T/C (second compound 10 µM, first compound 0.1 µM): 68%
- viability, T/C (second compound 10 µM, first compound 0.316 µM): 54.8%
- viability, T/C (second compound 10 µM, first compound 1 µM): 53.8%
- viability, T/C (second compound 10 µM, first compound 3.16 µM): 37.6%
- viability, T/C (second compound 10 µM, first compound 10 µM): 21.6%

Structure (SMILES): CC1(C)CCC(CN2CCN(c3ccc(C(=O)NS(=O)(=O)c4ccc(NCC5CCOCC5)c([N+](=O)[O-])c4)c(Oc4cnc5[nH]ccc5c4)c3)CC2)=C(c2ccc(Cl)cc2)C1 + COc1c(OCCCN2CCOCC2)ccc2c3n(c(=NC(=O)c4cnc(N)nc4)nc12)CCN3
- pIC50 (second compound 0.00316 µM): < 5.00
- pIC50 (second compound 0.01 µM): < 5.00
- pIC50 (second compound 0.0316 µM): < 5.00
- pIC50 (second compound 0.1 µM): < 5.00
- pIC50 (second compound 0.316 µM): > 7.50
- pIC50 (second compound 1 µM): > 7.50
- viability, T/C (second compound 0.00316 µM, first compound 0.0316 µM): 114%
- viability, T/C (second compound 0.00316 µM, first compound 0.1 µM): 99.2%
- viability, T/C (second compound 0.00316 µM, first compound 0.316 µM): 111%
- viability, T/C (second compound 0.00316 µM, first compound 1 µM): 102%
- viability, T/C (second compound 0.00316 µM, first compound 3.16 µM): 121%
- viability, T/C (second compound 0.00316 µM, first compound 10 µM): 105%
- viability, T/C (second compound 0.01 µM, first compound 0.0316 µM): 93.7%
- viability, T/C (second compound 0.01 µM, first compound 0.1 µM): 99.5%
- viability, T/C (second compound 0.01 µM, first compound 0.316 µM): 105%
- viability, T/C (second compound 0.01 µM, first compound 1 µM): 105%
- viability, T/C (second compound 0.01 µM, first compound 3.16 µM): 105%
- viability, T/C (second compound 0.01 µM, first compound 10 µM): 107%
- viability, T/C [1]: 95%
- viability, T/C [2]: 96.8%
- viability, T/C [3]: 89.6%
- viability, T/C [4]: 87.6%
- viability, T/C [5]: 99.1%
- viability, T/C [6]: 85.2%
- viability, T/C [7]: 73.1%
- viability, T/C [8]: 83.8%
- viability, T/C [9]: 74.4%
- viability, T/C [10]: 75.5%
- viability, T/C [11]: 65%
- viability, T/C [12]: 80%
- viability, T/C [13]: 50.7%
- viability, T/C [14]: 46.9%
- viability, T/C [15]: 50.7%
- viability, T/C [16]: 47.2%
- viability, T/C [17]: 43.1%
- viability, T/C [18]: 57.9%
- viability, T/C [19]: 29.5%
- viability, T/C [20]: 33.7%
- viability, T/C [21]: 31.5%
- viability, T/C [22]: 33.7%
- viability, T/C [23]: 26.9%
- viability, T/C [24]: 30.8%
